± gives the expanded uncertainty stated by the source.
Tests used:
[1] = refractive index (Na D-line) (dimensionless); conditions: 298.15 K; 101.33 kPa; Liquid; Standard Abbe refractometry
[2] = 298.15 K; 101.33 kPa; Liquid; Vibrating tube method

Structure (SMILES)	refractive index [1]	mass density [2] [kg/m3]
CC(=O)[O-].CCn1cc[n+](C)c1 [1-ethyl-3-methylimidazolium acetate]	1.50069 ± 0.001	1099.02 ± 8.4
CCOP(=O)([O-])OCC.CCn1cc[n+](C)c1 [1-ethyl-3-methylimidazolium diethyl phosphate]	1.47304 ± 0.001	1148.4 ± 9.2
CCCCCC [hexane]	1.37236 ± 0.00037	655.09 ± 0.33
c1ccncc1 [pyridine]	1.50636 ± 0.00033	978.04 ± 0.12
c1ccsc1 [thiophene]	1.52523 ± 0.00033	1058.61 ± 0.15
Cc1ccccc1 [toluene]	1.49367 ± 0.00033	862.18 ± 0.16

Source: the NIST ThermoML archive (doi:10.1016/j.fluid.2013.07.028)
